The values below come from ChEMBL document CHEMBL1151275, “An anthraquinone with potent quinone reductase-inducing activity and other constituents of the fruits of Morinda citrifolia (noni)” (J Nat Prod, 2005).

The term IC50 denotes the concentration that inhibits the measured activity by half. A lower IC50 goes with inhibition by little substance.

A short description of assay [1]: Cytotoxicity against mouse Hepa-1c1c7 cells after 48 hrs by crystal violet staining. The format is cell-based. The note with it: Hepa-1c1c7, 48 h.
Assay [2] can be described thus: Chemoprevention index, ratio of IC50 for mouse Hepa-1c1c7 cells to drug level required to double specific NADPH:quinone reductase activity in mouse Hepa-1c1c7 cells. The format is functional.

Each structure is given as a SMILES string. Bounds are passed on as bounds.

In turn, `C[S@+]([O-])CCCCN=C=S` [L-SULFORAPHANE] yielded an IC50 in assay [1] of 9.77 µM. Moreover, in assay [2], the Ratio amounted to 28.7.
Taken in the same sequence, the figures for `COc1c(O)cc2c(c1O)C(=O)c1ccc(O)cc1C2=O` were more than 69.9 µM and more than 7770.
`COc1ccc(O)c2c1C(=O)c1ccc(CO)c(O)c1C2=O` displayed an IC50 in assay [1] of more than 66.6 µM. The Ratio in assay [2] is more than 39.9.
